Reference: patent US8877742B2, “Compounds” (GlaxoSmithKline Intellectual Property Limited, priority 2011, dated 2014)

Each molecule was assayed against T1, NOX2 in differentiated HL60 cells (Homo sapiens, UniProt P04839) (assay: HL60 cell-based assays: superoxide production by NOX2 (Oxyburst Assay 1 or L012 Assay 2)). Conditions: PMA-stimulated differentiated HL60 cells; in at least one of the HL60 assays (Oxyburst fluorescence or L012 luminescence).
T1 construct: Differentiation of HL-60 cells to granulocytes increases NOX2 expression; endogenous in cells; host or cells: HL60 cells differentiated into neutrophil-like cells with 1.3% DMSO
T1 sequence (P04839 2-570 limits assumed): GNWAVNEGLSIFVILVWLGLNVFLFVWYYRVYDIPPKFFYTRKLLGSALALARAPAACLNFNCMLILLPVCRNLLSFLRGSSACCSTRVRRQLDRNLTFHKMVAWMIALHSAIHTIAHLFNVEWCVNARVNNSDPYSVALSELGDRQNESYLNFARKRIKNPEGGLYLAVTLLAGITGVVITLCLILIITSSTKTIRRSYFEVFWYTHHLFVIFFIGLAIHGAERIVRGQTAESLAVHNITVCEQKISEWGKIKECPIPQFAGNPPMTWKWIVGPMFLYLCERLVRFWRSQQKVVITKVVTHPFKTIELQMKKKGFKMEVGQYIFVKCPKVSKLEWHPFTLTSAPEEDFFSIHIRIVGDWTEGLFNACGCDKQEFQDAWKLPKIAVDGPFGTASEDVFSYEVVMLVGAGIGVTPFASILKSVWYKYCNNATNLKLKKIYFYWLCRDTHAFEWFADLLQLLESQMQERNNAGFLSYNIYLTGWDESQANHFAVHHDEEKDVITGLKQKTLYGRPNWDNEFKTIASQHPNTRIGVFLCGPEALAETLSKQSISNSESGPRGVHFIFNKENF
T1 sequence (P13498 2-195 partner limits assumed): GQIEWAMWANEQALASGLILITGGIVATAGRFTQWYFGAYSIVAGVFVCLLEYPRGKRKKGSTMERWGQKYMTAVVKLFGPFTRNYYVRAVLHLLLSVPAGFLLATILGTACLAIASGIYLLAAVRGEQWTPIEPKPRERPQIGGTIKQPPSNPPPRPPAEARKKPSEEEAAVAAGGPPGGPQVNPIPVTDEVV
Description: In the cell-based assay, superoxide production by NOX2 was measured in differentiated HL60 cells, a human myelomonocytic leukemia cell line, using either Oxyburst (Assay1) or L012 (Assay2). Differentiation of HL-60 cells to granulocytes increases NOX2 expression. The phorbol 12-myristate 13-acetate (PMA) was used to stimulate the production of superoxide in HL60 cells by activating protein kinase C, which then activated the NADPH oxidase (NOX) enzymes. Inhibition of NOX2 enzyme was detected by the reversal of fluorescence signal (Assay 1) or luminescence signal (Assay2). The control inhibitor used was diphenyleneiodonium chloride (DPI), a […] inhibitor capable of non-selectively inhibiting superoxide produced by NOX enzymes.
Assay 1: in this high-throughput screening assay, oxyburst green bovine serum albumin (BSA) was used to detect superoxide production in HL60 cells. Oxidation of Oxyburst green BSA by hydrogen peroxide as a result of the activation of NOX2 by PMA. Oxyburst green BSA fluorescence was measured at excitation 485 nm and emission 530 nm.
Assay 2: in this assay, a chemiluminescence probe, L-012 was used to detect superoxide production in HL60 cells. L-012 reacted with various types of reactive oxygen species generated by PMA-activated HL60 cells. Luminescence was measured using Tecan Infinite 500.
The HL60 cells were differentiated into neutrophil-like cells by adding 1.3% DMSO in the media for 3-7 days (Hua, J et al. (2000) Journal of Leukocyte Biology. 68:216-224). Iscove's Modified Dulbecco's Media (IMDM) with L-Glutamine and 25 mM HEPES buffer, Fetal Bovine Serum (FBS), Penicillin/Streptomycin, Oxyburst Green BSA, PBS, and HBSS buffer with Calcium Chloride and Magnesium Chloride were purchased from Invitrogen (Catalog #s: 12440-061, 10500-064, 15140-163, O-13291, 14190-250, and 14025-134 respectively). Phorbol 12-myristate 13-acetate (PMA), glucose, and CHAPS were purchased from Sigma (Catalog #s: 79346, D-9434, and C5070 respectively). Diphenyleneiodonium chloride (DPI) was purchased from Toronto Research Chemicals (Catalog #: D491500). L-012 was purchased from Wako Chemical (Catalog #: 120-04891). Dimethyl sulfoxide (DMSO) was purchased EMD Chemicals (VWR Catalog #: MX1456-1). Multidrop combi was purchased from Thermo Electron Corporation (Waltham, Mass., USA). Hummingbird nanoliter liquid dispenser was purchased from Genomics Solution (Ann Arbor, Mich., USA). 384 well low-volume plates and polypropylene 384 well clear plates were purchased from Greiner (Catalog #: 784076 and 781280 respectively). 96 well plate and 384 well plate black assay plates were purchased from Greiner (Catalog #: 655094 and 781098). 96 well plate for compound serial dilution was purchased from Corning (Catalog #: 9017). Acquest or Analyst fluorescence plate reader was purchased from LJL Biosystems/Molecular Devices (California, USA). Tecan Infinite 500 was purchased from Tecan (Switzerland).
HL60 cells were thawed and resuspended in Cells media. The cells were centrifuged at 1200 rpm for 5 minutes. Media was aspirated and the cells were resuspended in Cells buffer. The cells were counted and resuspended to 0.5×10^6 cells/mL.
Full inhibition controls were dispensed using 100 nL/well of 1 mM DPI in DMSO to column 18 of a 384 well plate. Compounds were dispensed using 100 nL/well. Full activity controls were dispensed using 100 nL/well of 4 uM PMA in DMSO. Oxyburst Green BSA was added to cell solution at 10 ug/mL. Using the Multidrop, 10 uL cell solution was added to the entire assay plate. The assay plate was incubated at room temperature for 100 minutes. Fluorescence reading was taken after 100 minutes at excitation 485 and emission 530 using 505 Dichroic on the Acquest or Analyst.
Serial dilution (1:3.16 fold serial dilution) of the compounds was performed in 100% DMSO in 96 well plate—Row B-H Column 1-10. Row A, Column 1-10 contained DPI serial dilution. Starting concentration was 10^−2 M (10 mM). […]

Row | IC50 | SMILES
1 | > 100 µM | CC(C)N1CCN(c2cncc(-c3cn(C)c4nccc(NS(=O)(=O)c5cccc(Cl)c5)c34)c2)CC1 [Example 25, 3-chloro-N-(3-(5-(4-isopropylpiperazin-1-yl)pyridin-3-yl)-1-methyl-1H-pyrrolo[2,3-b]pyridin-4-yl)benzenesulfonamide]
2 | > 100 µM | COc1cc(-c2cn(C)c3nccc(NS(=O)(=O)c4ccccc4)c23)cc(N2CCN(C(C)C)CC2)c1 [Example 29, N-(3-(3-(4-isopropylpiperazin-1-yl)-5-methoxyphenyl)-1-methyl-1H-pyrrolo[2,3-b]pyridin-4-yl)benzenesulfonamide]
3 | > 100 µM | COc1cc(-c2cn(C)c3nccc(NS(=O)(=O)c4ccccc4)c23)cc(N2CCN(C)CC2)c1 [Example 28, N-(3-(3-methoxy-5-(4-methylpiperazin-1-yl)phenyl)-1-methyl-1H-pyrrolo[2,3-b]pyridin-4-yl)benzenesulfonamide]

Second part, the molecule before the results:

Row | SMILES | IC50
4 | CN1Cc2ccc(-c3cn(C)c4nccc(NS(=O)(=O)c5ccccc5)c34)cc2C1 [Example 251, N-[1-methyl-3-(2-methyl-2,3-dihydro-1H-isoindol-5-yl)-1H-pyrrolo[2,3-b]pyridin-4-yl]benzenesulfonamide] | > 100 µM
5 | Cn1c(-c2cc[nH]n2)c(-c2cccc(N3CCCC3)c2)c2c(NS(=O)(=O)c3ccccc3)ccnc21 [Example 173, N-(1-methyl-2-(1H-pyrazol-3-yl)-3-(3-(pyrrolidin-1-yl)phenyl)-1H-pyrrolo[2,3-b]pyridin-4-yl)benzenesulfonamide] | > 100 µM
6 | CN1C(=O)COc2ccc(-c3cn(C)c4nccc(NS(=O)(=O)c5ccccc5)c34)cc21 [Example 39, N-(1-methyl-3-(4-methyl-3-oxo-3,4-dihydro-2H-benzo[b][1,4]oxazin-6-yl)-1H-pyrrolo[2,3-b]pyridin-4-yl)benzenesulfonamide] | > 100 µM
